In patent publication US20260357349A1, “METHODS OF IDENTIFYING AND TREATING CANCER” (Agency for Science, Technology and Research, priority 2022, published 2026):

System: RELA occupancy on the chromatin (786-O cells)
Assay: RELA ChIP after bortezomib, 786-O
Type: cell-based, human
Procedure: Colony formation of parental (WT) or PBRM1 knockout (KO) 786-O cells expressing shRNA against non-targeting control (NC), RELA, or NFKB1 cultured with a) 10% or b) 2% serum. c) Gene expression changes of NF-κB target genes in 786-O cells treated with 0.006 μM bortezomib (BTZ) or 0.6 µM Bay 11-7085 for 24 hours (n=3 technical replicates). * p-value<0.05 (two-sided t-test). […] A positive log fold change refers to gain in bortezomib treatment over DMSO. g) Colony formation of 786-O isogenic cells and h) NCC432 isogenic cells treated with bortezomib for a week. Tumor formation of isogenic 786-O cells (i) and NCC432 cells (j) treated with PBS control or 0.5 mg/kg bortezomib (BTZ) in NSG mice. (n=10 tumors per group for 786-O, and n=16 tumors for NCC432 PBS EV group and 12 tumors for NCC432 PBS PBRM1 group and 14 tumors for both NCC432 EV and PBRM1 BTZ groups). Data are presented as mean values+/−SEM. k) Model for the study.
Data are presented as median+/−25%. Lower whisker is smallest observation greater than or equal to 25% quantile-1.5*interquantile range (IQR). Upper whisker represents the largest observation less than or equal to 75%+1.5*IQR. Amount of normalized RELA protein in the c) input or d) co-immunoprecipitated with SMARCA4 from 3 independent runs. […]

SMILES: CC(C)C[C@H](NC(=O)[C@H](Cc1ccccc1)NC(=O)c1cnccn1)B(O)O [bortezomib]
- RELA occupancy (figure title) (786-O, 0.005 μM bortezomib, 9 hours): abrogates RELA occupancy
- RELA occupancy on the chromatin, PB1 KO (PB1 KO 786-O cells, ChIP-qPCR): profound reduction of RELA occupancy
